We go through 19 molecules from patent US4868303A, “Bis-dioxopiperazine derivatives” (Zenyaku Kogyo Kabushiki Kaisha, priority 1986, dated 1989).

Where a name gives a salt, the structure may show the parent alone.

Test [1] has as its system P388 lymphocytic leukemia. Kind of test: Increase in life span on P388 lymphocytic leukemia tumor-transplanted mouse. The following applies: P388, ip, 24 h, intraperitoneal, day 1 and 5th day after transplantation, read-out: Rate of increase in life span (ILS); for ILS at 3 mg/kg: daily dose 3.0 mg/kg; for ILS at 2.5 mg/kg: daily dose 2.5 mg/kg; for ILS at 2.2 mg/kg: daily dose 2.2 mg/kg. In kind it is in vivo, mouse (CDF1). Here is the method: (III) Increase in Life Span on P388 Lymphocytic Leukemia Tumor-transplantedMouse:
The treated group to which the test sample was administered consisted of seven mice, while the control group consisted of ten mice. Six weeks old male mice (CDF1, 25±2 g of body weight) were employed as host animals.
Tumor cells (1.0×10^6) of P388 lymphocytic leukemia were transplanted intraperitoneally into each mouse. The treatment was effected one day after the transplantation and on 5th day by administering prescribed dose of each test sample intraperitoneally to the mice.
Antitumor activity of the test sample was evaluated by the rate of increase in life span (ILS) which was calculated with the following formula.
T': median survival time of treated mice
C': median survival time of control mice

In test [2] the test system is P388 lymphocytic leukemia. Kind of test: Growth inhibition of tumor cells of P388 lymphocytic leukemia in vitro. In kind it is cell-based, mouse (CDF1). Particulars: Mus musculus, 48 hours at 37° C., read-out: 50% Inhibitory concentration of cell growth (IC50). Here is the method:
(I) Growth Inhibition of Tumor Cells of P388 Lymphocytic Leukemia in Vitro:
Tumor cells were collected aseptically with capillary tube from ascites in CDF1 female mice transplanted intraperitoneally with 1×10^6cells of P388 lymphocytic leukemia 5 days before. Cell suspension was prepared at 5×10^4 cells/0.5 ml in a RPMI1640 medium supplemented with 10% fetal calf serum, kanamycin (0.1 mg/ml) and 2-hydroxyethyldisulfide (0.01 mM). Each test sample was dissolved or suspended in the medium at a concentration of 1×10^-1 -1×10^-5 mM.
A test tube with Molton stopper loosely involving 0.5 ml each of the cell suspension and the sample suspension was kept for 48 hours at 37° C. in an incubator supplied with air containing 5% carbon dioxide. […] The cells harvested therefrom was counted by using of a Coulter Counter and the inhibition of cell growth was calculated by the following formula:
Growth Inhibition (%)=(1-T/C)×100
T: number of cells in the culture containing test sample
C: number of cells in the culture of control

Another test has as its system V79 cells. Kind of test: Inhibitory effect on colony formation of V79 cells in vitro. The test is classed as cell-based, Chinese hamster. The following applies: Cricetulus griseus, 96 hours with sample, read-out: 90% inhibitory concentration (IC90). Here is the method: (II) Inhibitory effect on Colony Formation of V79 Cells in Vitro:
V79 cells established from Chinese hamster lung fibroblastoma were cultured routinely on plastic dishes (.phi. 60 mm) in RPMI 1640 medium supplemented with 10% fetal calf serum and kanamycin (0.1 mg/ml). Each confluent culture was then trypsinized by the addition of 1 ml of trypsin-EDTA solution (supplied by the firm GIBCO) for 5 minutes at 37° C. in an incubator supplied with humidified air containing 5% CO2.
Homogeneous suspension of V79 cells thus obtained was diluted to 100, 200 and 400 viable cells/ml with the medium, and 1 ml each of them was transferred to other plastic dishes (.phi. 60 mm) containing 1.85 ml of the medium, and diluted to 100, 200 and 400 viable cells/dish.
Each test sample was dissolved in DMSO at the concentration of 20 mM and diluted with the medium to the final concentration of 2×10^-3 -2×10^-10 mM.
Each test dish was kept for 24 hours at 37° C. in an incubator supplied with humidified air containing 5% CO2, and was further cultured for 96 hours after 150 μl of the sample solution was added thereto.
The cells were gently washed once with Mg- and Ca-free phosphate-buffered saline [PBS(-)] and fixed with 1 ml of 3.5% HCHO-PBS(-) solution for 2 hours, then stained with a crystal violet ethanol solution.
The 90% inhibitory concentration (IC90) was calculated by comparing the number of visible colonies on the sample dish with that on the control dish.

With `C[C@H]([C@H](C)N1CC(=O)N(COC(=O)COc2ccc(Cl)cc2Cl)C(=O)C1)N1CC(=O)NC(=O)C1` (relative stereo) [Sample 11, erythro-2-[4-(2,4-dichlorophenoxyacetoxymethyl)-3,5-dioxopiperazin-1-yl]-3-(3,5-dioxopiperazin-1-yl)butane], the ILS (usually how much longer treated animals lived than controls) at 2.7 mg/kg in test [1] (daily dose 2.7 mg/kg) came to 132%. Further, the IC50 in test [2] is 77 nM. Besides, in the test with V79 cells, the IC90 came out at 0.082 nM.
Consider `C[C@H]([C@H](C)N1CC(=O)N(COC(=O)[C@H](N)c2ccccc2)C(=O)C1)N1CC(=O)N(COC(=O)[C@H](N)c2ccccc2)C(=O)C1` [Sample 6, meso-2,3-bis[4-[(R)-2-amino-2-phenylacetoxymethyl]-3,5-dioxopiperazin-1-yl]butane trifluoroacetate], for which the IC50 in test [2] stood at 52 nM.
Turning to `C[C@H]([C@H](C)N1CC(=O)N(COC(=O)c2ccccc2)C(=O)C1)N1CC(=O)N(COC(=O)c2ccccc2)C(=O)C1` [Sample 16, meso-2,3-bis(4-benzoyloxymethyl-3,5-dioxopiperazin-1-yl)butane], the ILS at 3 mg/kg in test [1] came out at 150%. In addition, the IC50 in test [2] came out at 250 nM. Besides, in the test on V79 cells, the IC90 came out at 0.098 nM.
As for `C[C@H]([C@H](C)N1CC(=O)N(COC(=O)OCc2ccc([N+](=O)[O-])cc2)C(=O)C1)N1CC(=O)NC(=O)C1` (relative stereo) [Sample 15, erythro-2-[4-(4-nitrobenzyloxycarbonyloxymethyl)-3,5-dioxopiperazin-1-yl]-3-(3,5-dioxopiperazin-1-yl)butane], the ILS at 2.6 mg/kg in test [1] (daily dose 2.6 mg/kg) is 177%. Moreover, in test [2], the IC50 stood at 240 nM.
Consider `CC(=O)OCN1C(=O)CN([C@H](C)[C@H](C)N2CC(=O)N(COC(C)=O)C(=O)C2)CC1=O` [Sample 1, meso-2,3-bis(4-acetoxymethyl-3,5-dioxopiperazin-1-yl)butane], for which, in test [1] (daily dose 1.5 mg/kg), the ILS at 1.5 mg/kg came out at 152%. Also, the IC50 in test [2] was 300 nM. For the same molecule, the IC90 with V79 cells was 0.089 nM.
`C[C@H]([C@H](C)N1CC(=O)N(COC(=O)COc2ccc(Cl)cc2Cl)C(=O)C1)N1CC(=O)N(COC(=O)COc2ccc(Cl)cc2Cl)C(=O)C1` [Sample 3, meso-2,3-bis[4-(2,4-dichlorophenoxyacetoxymethyl)-3,5-dioxopiperazin-1-yl]butane]: in test [2], the IC50 is 71 nM.
As for `C[C@H]([C@H](C)N1CC(=O)N(COC(=O)Cc2ccccc2Cl)C(=O)C1)N1CC(=O)NC(=O)C1` (relative stereo) [Sample 10, erythro-2-[4-(2-chlorophenylacetoxymethyl)-3,5-dioxopiperazin-1-yl]-3-(3,5-dioxopiperazin-1-yl)butane], the ILS at 2.5 mg/kg in test [1] amounted to 162%. In test [2], the IC50 is 7.1 nM. The IC90 in the test on V79 cells was 0.073 nM.
Consider `CC(C(C)N1CC(=O)N(COC(=O)C=Cc2cccc(Cl)c2)C(=O)C1)N1CC(=O)NC(=O)C1` (stereo not drawn) [Sample 12, erythro-2-[4-(3-chlorocinnamoyloxymethyl)-3,5-dioxopiperazin-1-yl]-3-(3,5-dioxopiperazin-1-yl)butane], for which the ILS at 2.5 mg/kg in test [1] was found to be 90%. Also, the IC50 in test [2] was found to be 11 nM. Besides, the IC90 with V79 cells stood at 0.098 nM.
On to `C[C@H]([C@H](C)N1CC(=O)N(COC(=O)c2ccco2)C(=O)C1)N1CC(=O)NC(=O)C1` (relative stereo) [Sample 18, erythro-2-[4-(2-furoyloxymethyl)-3,5-dioxopiperazin-1-yl]-3-(3,5-dioxopiperazin-1-yl)butane], for which the increase in lifespan (ILS) at 2.2 mg/kg in test [1] stood at 185%. Also, the IC50 in test [2] worked out at 42 nM. Moreover, in the test on V79 cells, the IC90 came to 0.1 nM.
Consider `C[C@H]([C@H](C)N1CC(=O)N(COC(=O)[C@H](NC(=O)OC(C)(C)C)c2ccccc2)C(=O)C1)N1CC(=O)N(COC(=O)[C@H](NC(=O)OC(C)(C)C)c2ccccc2)C(=O)C1` [Sample 5, meso-2,3-bis[4-[(R)-2-N-tert-butoxycarbonylamino-2-phenylacetoxymethyl]-3,5-dioxopiperazin-1-yl]butane], for which the IC50 in test [2] worked out at 32 nM.
As to `C[C@H]([C@H](C)N1CC(=O)N(COC(=O)OCc2ccccc2)C(=O)C1)N1CC(=O)N(COC(=O)OCc2ccccc2)C(=O)C1` [Sample 17, meso-2,3-bis(4-benzyloxycarbonyloxymethyl-3,5-dioxopiperazin-1-yl)butane], the ILS at 3.2 mg/kg in test [1] (daily dose 3.2 mg/kg) came to 179%. Besides, the IC50 in test [2] came to 56 nM.
With `C[C@H]([C@H](C)N1CC(=O)N(COC(=O)OCc2ccccc2)C(=O)C1)N1CC(=O)NC(=O)C1` (relative stereo) [Sample 19, erythro-2-(4-benzyloxycarbonyloxymethyl-3,5-dioxopiperazin-1-yl)-3-(3,5-dioxopiperazin-1-yl)butane], in test [1] (daily dose 2.4 mg/kg), the increase in lifespan (ILS) at 2.4 mg/kg came out at 132%. The IC50 in test [2] was determined as 11 nM. In addition, the IC90 with V79 cells stood at 0.09 nM.
As to `C[C@H]([C@H](C)N1CC(=O)NC(=O)C1)N1CC(=O)NC(=O)C1` [Sample B, meso-2,3-bis(3,5-dioxopiperazin-1-yl)butane, reference compound], the IC90 in the test with V79 cells was determined as 5.3 nM.
On to `CC(=O)OCN1C(=O)CN([C@@H](C)[C@@H](C)N2CC(=O)NC(=O)C2)CC1=O` (relative stereo) [Sample 9, erythro-2-(4-acetoxymethyl-3,5-dioxopiperazin-1-yl)-3-(3,5-dioxopiperazin-1-yl)butane], for which the IC50 in test [2] turned out to be 74 nM.
In the case of `C[C@H]([C@H](C)N1CC(=O)N(COC(=O)OCc2ccc([N+](=O)[O-])cc2)C(=O)C1)N1CC(=O)N(COC(=O)OCc2ccc([N+](=O)[O-])cc2)C(=O)C1` [Sample 8, meso-2,3-bis[4-(4-nitrobenzyloxycarbonyloxymethyl)-3,5-dioxopiperazin-1-yl]butane], in test [2], the IC50 amounted to 150 nM.
Consider `CC(C)COC(=O)OCN1C(=O)CN([C@H](C)[C@H](C)N2CC(=O)N(COC(=O)OCC(C)C)C(=O)C2)CC1=O` [Sample 7, meso-2,3-bis(4-isobutoxycarbonyloxymethyl-3,5-dioxopiperazin-1-yl)butane], for which, in test [1], the increase in lifespan (ILS) at 3 mg/kg came out at 104%. In test [2], the IC50 worked out at 84 nM. For the same molecule, the IC90 with V79 cells was found to be 0.0045 nM.
With `C[C@H]([C@H](C)N1CC(=O)N(COC(=O)Cc2ccccc2Cl)C(=O)C1)N1CC(=O)N(COC(=O)Cc2ccccc2Cl)C(=O)C1` [Sample 2, meso-2,3-bis[4-(2-chlorophenylacetoxymethyl)-3,5-dioxopiperazin-1-yl]butane], the ILS at 3.4 mg/kg in test [1] (daily dose 3.4 mg/kg) was 107%. Besides, in test [2], the IC50 was 8.6 nM.
`C[C@H]([C@H](C)N1CC(=O)N(COC(=O)c2ccccc2)C(=O)C1)N1CC(=O)NC(=O)C1` (relative stereo) [Sample 13, erythro-2-(4-benzoyloxymethyl-3,5-dioxopiperazin-1-yl)-3-(3,5-dioxopiperazin-1-yl)butane]: the ILS at 2.2 mg/kg in test [1] was 118%. In addition, the IC50 in test [2] was 38 nM.
As for `CC(C(C)N1CC(=O)N(COC(=O)C=Cc2cccc(Cl)c2)C(=O)C1)N1CC(=O)N(COC(=O)C=Cc2cccc(Cl)c2)C(=O)C1` (stereo not drawn) [Sample 4, meso-2,3-bis[4-(3-chlorocinnamoyloxymethyl)-3,5-dioxopiperazin-1-yl]butane], the IC50 in test [2] is 240 nM.
